Assay results reported in patent US10266497B2 (ABIDE THERAPEUTICS, INC., priority 2017, dated 2019).

Key:
MAGL [1] = biological target: T1, MAGL (Mus musculus, UniProt O35678); test: Mouse brain proteomes from inhibitor treated mice (oral gavage, sacrificed 4 h after administration); assay type: in vivo; set-up: mouse brain membrane fraction for mouse assays; from tissue; host or cells: mouse brain (membrane fraction in vitro; brain proteomes of treated C57Bl/6J mice in vivo); conditions: 5 mg/kg oral gavage, brain proteome 4 h after administration, read-out: MAGL % inh. 5 mg/kg (mouse)
T1 sequence (O35678 1-303): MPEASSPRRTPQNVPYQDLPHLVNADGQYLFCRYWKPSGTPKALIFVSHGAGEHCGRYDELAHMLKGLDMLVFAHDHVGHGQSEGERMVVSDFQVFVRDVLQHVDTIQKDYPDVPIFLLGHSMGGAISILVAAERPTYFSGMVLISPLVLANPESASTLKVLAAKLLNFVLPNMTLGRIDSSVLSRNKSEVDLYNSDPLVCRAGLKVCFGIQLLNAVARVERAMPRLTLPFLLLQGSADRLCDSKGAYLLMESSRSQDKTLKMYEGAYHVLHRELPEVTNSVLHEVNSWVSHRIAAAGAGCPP

FAAH [2] = biological target: T2, FAAH (Mus musculus, UniProt O08914); test: Mouse brain proteomes from inhibitor treated mice (oral gavage, sacrificed 4 h after administration), FAAH; assay type: in vivo; set-up: mouse brain membrane fraction for mouse assays; from tissue; host or cells: mouse brain (membrane fraction in vitro; brain proteomes of treated C57Bl/6J mice in vivo); conditions: 5 mg/kg oral gavage, brain proteome 4 h after administration, read-out: FAAH % inh. 5 mg/kg (mouse)
T2 sequence (O08914 1-579): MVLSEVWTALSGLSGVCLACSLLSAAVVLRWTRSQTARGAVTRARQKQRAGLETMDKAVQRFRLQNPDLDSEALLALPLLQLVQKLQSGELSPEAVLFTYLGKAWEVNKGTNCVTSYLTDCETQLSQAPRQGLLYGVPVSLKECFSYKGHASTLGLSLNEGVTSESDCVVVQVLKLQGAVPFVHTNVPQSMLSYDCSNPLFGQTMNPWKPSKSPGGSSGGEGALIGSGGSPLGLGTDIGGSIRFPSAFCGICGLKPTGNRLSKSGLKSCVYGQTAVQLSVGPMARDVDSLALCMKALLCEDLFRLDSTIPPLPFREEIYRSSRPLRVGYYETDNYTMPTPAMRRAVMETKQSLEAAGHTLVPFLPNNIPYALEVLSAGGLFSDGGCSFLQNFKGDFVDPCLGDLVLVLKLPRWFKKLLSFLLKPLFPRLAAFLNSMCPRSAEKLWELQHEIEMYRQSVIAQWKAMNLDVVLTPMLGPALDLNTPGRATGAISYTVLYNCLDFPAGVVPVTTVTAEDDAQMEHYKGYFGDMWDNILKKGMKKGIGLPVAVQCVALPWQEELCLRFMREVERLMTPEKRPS

FAAH [3] = biological target: T2, FAAH; test: In vitro competitive activity-based protein profiling, FAAH, mouse; conditions: read-out: FAAH % inh. 1 μM (mouse)
MAGL [4] = biological target: T3, MAGL (Homo sapiens, UniProt Q99685); test: In vitro competitive activity-based protein profiling, MAGL, human; conditions: read-out: MAGL % inh. 1 μM (human)
T3 sequence (Q99685 1-303): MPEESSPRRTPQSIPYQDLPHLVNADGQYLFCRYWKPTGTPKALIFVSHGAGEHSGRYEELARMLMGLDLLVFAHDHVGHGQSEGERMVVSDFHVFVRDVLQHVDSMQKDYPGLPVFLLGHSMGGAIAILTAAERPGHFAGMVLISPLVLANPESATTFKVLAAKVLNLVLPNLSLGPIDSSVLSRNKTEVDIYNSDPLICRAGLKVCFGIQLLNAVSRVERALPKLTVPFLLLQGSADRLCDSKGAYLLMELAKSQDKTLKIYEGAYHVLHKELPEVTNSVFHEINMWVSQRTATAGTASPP

FAAH [5] = biological target: T4, FAAH (Homo sapiens, UniProt O00519); test: In vitro competitive activity-based protein profiling, FAAH, human; conditions: for inhibition at 1 µM: read-out: FAAH % inh. 1 μM (human)
T4 sequence (O00519 1-579): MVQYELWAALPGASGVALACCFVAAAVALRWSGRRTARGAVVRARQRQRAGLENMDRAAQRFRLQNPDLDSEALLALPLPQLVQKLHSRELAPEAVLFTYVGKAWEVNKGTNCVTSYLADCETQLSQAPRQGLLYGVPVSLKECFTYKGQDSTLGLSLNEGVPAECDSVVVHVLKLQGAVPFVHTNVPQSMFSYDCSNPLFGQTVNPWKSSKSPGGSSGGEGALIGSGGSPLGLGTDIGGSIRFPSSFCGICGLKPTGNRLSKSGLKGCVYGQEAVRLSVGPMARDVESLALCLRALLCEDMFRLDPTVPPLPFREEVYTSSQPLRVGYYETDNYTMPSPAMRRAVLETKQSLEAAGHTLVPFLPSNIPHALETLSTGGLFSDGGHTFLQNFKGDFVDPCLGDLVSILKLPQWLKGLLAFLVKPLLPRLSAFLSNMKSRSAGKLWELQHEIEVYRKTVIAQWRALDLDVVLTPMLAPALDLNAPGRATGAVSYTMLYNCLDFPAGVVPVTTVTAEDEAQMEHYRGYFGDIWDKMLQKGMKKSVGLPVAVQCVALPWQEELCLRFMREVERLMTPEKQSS

MAGL [6] = biological target: T1, MAGL; test: In vitro competitive activity-based protein profiling, MAGL, mouse; conditions: read-out: MAGL % inh. 1 μM (mouse)

Structure (SMILES)	inhibition at 5 mg/kg (MAGL [1]) [%]	inhibition at 5 mg/kg (FAAH [2]) [%]	inhibition at 1 µM (FAAH [3]) [%]	inhibition at 1 µM (MAGL [4]) [%]	inhibition at 1 µM (FAAH [5]) [%]	inhibition at 1 µM (MAGL [6]) [%]	IC50 (FAAH [5]) [nM]
O=C(O)c1nn(C(=O)N2CCC3(CCCN3Cc3cc4ccc(C(F)(F)F)cc4s3)CC2)cc1Cl [Example 139, 4-chloro-1-(1-((6-(trifluoromethyl)benzo[b]thiophen-2-yl)methyl)-1,8-diazaspiro[4.5]decane-8-carbonyl)-1H-pyrazole-3-carboxylic acid]	0 to 25	0 to 25	> 75	> 75	> 75	> 75	
O=C(O)c1ccn(C(=O)N2CCN(Cc3ccc(C(F)(F)F)cc3N3CC4COCC4C3)CC2)n1 (stereo not drawn) [Example 106, 1-(4-(2-(tetrahydro-1H-furo[3,4-c]pyrrol-5(3H)-yl)-4-(trifluoromethyl)benzyl)piperazine-1-carbonyl)-1H-pyrazole-3-carboxylic acid]	0 to 25	0 to 25	0 to 25	> 75	0 to 25	> 75	
O=C(O)c1ccn(C(=O)N2CCC3(CCCN3Cc3ccc(C(F)(F)F)cc3N3CCCC3)CC2)n1 [Example 93, 1-(1-(2-(pyrrolidin-1-yl)-4-(trifluoromethyl)benzyl)-1,8-diazaspiro[4.5]decane-8-carbonyl)-1H-pyrazole-3-carboxylic acid]	0 to 25	0 to 25	0 to 25	> 75	0 to 25	> 75	1000 to 10000
O=C(O)c1ccn(C(=O)N2CCC(Oc3ccc(Cl)cc3N3CCCC3)CC2)n1 [Example 11, 1-(4-(4-Chloro-2-(pyrrolidin-1-yl)phenoxy)piperidine-1-carbonyl)-1H-pyrazole-3-carboxylic Acid]	0 to 25	0 to 25	0 to 25	> 75	0 to 25	> 75	
NC(=O)c1ccn(C(=O)N2CCN(Cc3cccc(C(F)(F)F)c3N3CCOCC3)CC2)n1 [Example 199, 1-(4-(2-morpholino-3-(trifluoromethyl)benzyl)piperazine-1-carbonyl)-1H-pyrazole-3-carboxamide]	> 75	0 to 25	> 75	> 75	> 75	> 75	100 to 1000
O=C(O)c1ccn(C(=O)N2CCC3(CCCN3Cc3cc4ccc(C(F)(F)F)cc4s3)CC2)n1 [Example 185, 1-(1-((6-(trifluoromethyl)benzo[b]thiophen-2-yl)methyl)-1,8-diazaspiro[4.5]decane-8-carbonyl)-1H-pyrazole-3-carboxylic acid]	0 to 25	0 to 25	0 to 25	> 75	0 to 25	> 75	
O=C(O)c1ccn(C(=O)N2CCN(Cc3ccc(C(F)(F)F)cc3N3CCN4CCC[C@@H]4C3)CC2)n1 [Example 48, (R)-1-(4-(2-(hexahydropyrrolo [1,2-a]pyrazin-2(1H)-yl)-4-(trifluoromethyl)benzyl)piperazine-1-carbonyl)-1H-pyrazole-3-carboxylic acid]	0 to 25	0 to 25	0 to 25	> 75	0 to 25	> 75	
C[C@H]1CCCN1c1cc(C(F)(F)F)ccc1CN1CCN(C(=O)n2ccc(C(=O)O)n2)CC1 [Example 104, (S)-1-(4-(2-(2-methylpyrrolidin-1-yl)-4-(trifluoromethyl)benzyl)piperazine-1-carbonyl)-1H-pyrazole-3-carboxylic acid]	0 to 25	0 to 25	0 to 25	> 75	0 to 25	> 75	
O=C(O)c1ccn(C(=O)N2CCN(Cc3ccc(Cl)cc3N3CCCC3)CC2)n1 [Example 107, 1-(4-(4-chloro-2-(pyrrolidin-1-yl)benzyl)piperazine-1-carbonyl)-1H-pyrazole-3-carboxylic acid]	0 to 25	0 to 25	0 to 25	> 75	0 to 25	> 75	
O=C(O)c1ccn(C(=O)N2CCN(Cc3cccc(Cl)c3N3C4CCC3COC4)CC2)n1 [Example 212, 1-(4-(2-(3-oxa-8-azabicyclo[3.2.1]octan-8-yl)-3-chlorobenzyl)piper-azine-1-carbonyl)-1H-pyrazole-3-carboxylic acid]	0 to 25	0 to 25	0 to 25	> 75	0 to 25	> 75	
O=C(O)c1ccn(C(=O)N2CC3CN(Cc4ccc(N5CCCC5)cc4C(F)(F)F)CC3C2)n1 (stereo not drawn) [Example 123, 1-(5-(4-(pyrrolidin-1-yl)-2-(trifluoromethyl)benzyl)octahydro-pyrrolo[3,4-c]pyrrole-2-carbonyl)-1H-pyrazole-3-carboxylic acid]	0 to 25	0 to 25	> 75	> 75	50 to 75	> 75	
O=C(O)c1ccn(C(=O)N2CCN(Cc3cccc(Oc4ccc(F)cc4)c3)CC2)n1 [Example 51, 1-(4-(3-(4-fluorophenoxy)benzyl)piperazine-1-carbonyl)-1H-pyrazole-3-carboxylic acid]	0 to 25	0 to 25	0 to 25	> 75	50 to 75	> 75	100 to 1000
CN(Cc1ccc(C(F)(F)F)cc1-c1nccs1)C1(C)CCN(C(=O)n2ccc(C(=O)O)n2)CC1 [Example 10, 1-(4-methyl-4-(methyl(2-(thiazol-2-yl)-4-(trifluoromethyl)benzyl)amino)piperidine-1-carbonyl)-1H-pyrazole-3-carboxylic Acid]	0 to 25	0 to 25	0 to 25	> 75	0 to 25	> 75	
